Consider 18 molecules from ChEMBL document CHEMBL1141045, “Cyclic sulfamide gamma-secretase inhibitors” (Bioorg Med Chem Lett, 2005).

Each structure is given as a SMILES string.

One series deals with Gamma-secretase. Description: Inhibitory concentration against gamma-secretase in whole cell SH-SY5Y assay. It is filed as protein-complex assay.
Series [1] in a line: (§1) AUC after administration of 30 (mpk) to rat through oral route. Format: ADME, organism-based, Plasma. The settings on record: plasma, 30 mg/kg.
A short description of series [2]: AUC after administration of 4 (mpk) to rat through oral route. It is filed as ADME, organism-based. The settings on record: plasma, 4 mg/kg.
Series [3] is described as follows: AUC after administration of 1 (mpk) to rat through oral route. It is filed as ADME, organism-based. The conditions noted are these: plasma, 1 mg/kg.
Another series deals with Rattus norvegicus. The series is described as §1. It is filed as ADME, organism-based, Plasma. The settings on record: in vivo, 30 mg/kg.

For the molecule `O=S1(=O)N[C@@]2(CN1CC(F)(F)F)[C@@H]1CC[C@H]2Cc2ccc(/C=C/CN3CCCCC3)cc2C1`, on Gamma-secretase, the IC50 was determined as 0.25 µM.

Molecule `CC1CCN(C/C=C/c2ccc3c(c2)C[C@H]2CC[C@@H](C3)[C@]23CN(CC(F)(F)F)S(=O)(=O)N3)CC1` showed an IC50 against Gamma-secretase of 0.018 µM.

In turn, `CN1CCN(C/C=C/c2ccc3c(c2)C[C@H]2CC[C@@H](C3)[C@]23CN(CC(F)(F)F)S(=O)(=O)N3)CC1=O` gave an IC50 against Gamma-secretase of 0.021 µM.

With `O=S1(=O)N[C@@]2(CN1C(F)(F)F)[C@@H]1CC[C@H]2Cc2ccccc2C1`, half-maximal inhibition against Gamma-secretase (IC50) required 0.017 µM.

Take `CCCNS(=O)(=O)N[C@H]1[C@@H]2CC[C@H]1Cc1ccccc1C2`: the AUC in series [1] amounted to 0.6 µM·h. The IC50 against Gamma-secretase was 0.132 µM.

Consider `O=S(=O)(NC1[C@@H]2CC[C@H]1Cc1ccc(/C=C/CN3CCOCC3)cc1C2)c1ccc(Cl)s1` (some centres not stated), for which the IC50 against Gamma-secretase came out at 0.001 µM. Further, the AUC in series [2] was 0.38 µM·h.

`O=S(=O)(N[C@H]1[C@@H]2CC[C@H]1Cc1ccccc1C2)NC(F)(F)F` came in with a 50% inhibitory concentration (IC50) on Gamma-secretase of 0.134 µM.

For `CC(=O)N1CCN(C/C=C/c2ccc3c(c2)C[C@H]2CC[C@@H](C3)[C@]23CN(CC(F)(F)F)S(=O)(=O)N3)CC1`, at Gamma-secretase, the IC50 turned out to be 0.004 µM.

On Gamma-secretase, `CCNS(=O)(=O)N[C@H]1[C@@H]2CC[C@H]1Cc1ccccc1C2` yielded an IC50 of 0.394 µM.

At Gamma-secretase, `CCN1C[C@]2(NS1(=O)=O)[C@@H]1CC[C@H]2Cc2ccccc2C1` gave an IC50 of 0.429 µM.

`O=S1(=O)N[C@@]2(CN1CC(F)(F)F)[C@@H]1CC[C@H]2Cc2ccc(/C=C/CN3CCC(C(F)(F)F)CC3)cc2C1` displayed an IC50 on Gamma-secretase of 0.0005 µM.

Turning to `CCCN1C[C@]2(NS1(=O)=O)[C@@H]1CC[C@H]2Cc2ccc(/C=C/CN3CCOCC3)cc2C1`, the AUC in series [3] is 1.19 µM·h. Also, it took 0.019 µM to reach half-maximal inhibition at Gamma-secretase (IC50).

In series [3], `CCCN1C[C@]2(NS1(=O)=O)[C@@H]1CC[C@H]2Cc2ccccc2C1` yielded an AUC of 0.1 µM·h. The molecule further yielded an IC50 on Gamma-secretase of 0.138 µM.

`CCCN1C[C@]2(NS1(=O)=O)[C@@H]1CC[C@H]2Cc2ccc(/C=C/CN3CCC(C(F)(F)F)CC3)cc2C1` had an IC50 against Gamma-secretase of 0.002 µM.

For `O=S1(=O)N[C@@]2(CN1CC(F)(F)F)[C@@H]1CC[C@H]2Cc2ccc(/C=C/CN3CCOCC3)cc2C1`, the IC50 against Gamma-secretase came to 0.0034 µM.

For the molecule `CCCCN1C[C@]2(NS1(=O)=O)[C@@H]1CC[C@H]2Cc2ccccc2C1`, the IC50 at Gamma-secretase stood at 0.122 µM.

For the molecule `CCCCNS(=O)(=O)N[C@H]1[C@@H]2CC[C@H]1Cc1ccccc1C2`, inhibition at Gamma-secretase was half-maximal at 0.766 µM (IC50).

Turning to `O=S(=O)(N[C@H]1[C@@H]2CC[C@H]1Cc1ccccc1C2)c1ccc(Cl)s1`, the AUC with Rattus norvegicus turned out to be 0.01 uMh.

As usually defined, the IC50 is the concentration needed to halve the response being measured. Lower therefore signals higher potency.
